Where a name gives a salt, the structure may show the parent alone.
How the values were obtained:
[1] = test system: left auricle of guinea-pigs; assay: Effect on the toxic effects of ouabain on the left auricle of guinea-pigs; conditions: compound 10^-5 M, ouabain 10^-6 M; for % contracture: percentage of the initial contraction developed
Procedure: The left auricles are removed from guinea-pigs (350-450 g) which have been anaesthetised with sodium pentobarbital (30 mg/kg). The auricles are attached to a STATHAM (UC2-GOULD) tension sensor and the initial tension applied is 0.5 grammes. The auricles are stimulated electrically at 1 Hz by means of platinum electrodes.
Toxic effect is achieved by the addition of ouabain (10^-6 M). The test compounds are added 15 minutes prior to the addition of the toxic agent.

[2] = test system: rat aortas; assay: Anti-vasoconstrictive activity in physiological medium: contraction of rat aortas induced by potassium depolarisation; design: species or system WISTAR rats; conditions: 0.25 h, hyperpotassic medium (80 mM KCl, 37 mM NaCl), cumulative concentrations every 15 minutes, 37° C., read-out: Concentration inhibiting by 50% (IC50) the contraction of rat aortas induced by potassium depolarisation
Procedure: (§1) The studies are carried out on rings, having a length of 3 mm, of aortas removed from WISTAR rats (325-375 g) which have been anaesthetised with sodium pentobarbital (30 mg/kg i.p.); or of aortas removed from New Zealand rabbits (1.8-2 kg) which have likewise been anaesthetised with sodium pentobarbital (30 mg/kg i.p.).
(§2) The vascular rings are immersed in a physiological solution, normal or calcium-free (+0.2 mM of EGTA chelator), which is kept at a temperature of 37° C. and aerated with a mixture of 95% O2 +5% CO2. The rings are connected to a STATHAM (UC2-GOULD) tension sensor. The optimum tensions for each vessel are applied and a stabilisation period of 90 minutes for the specimens is observed.
Table (T1) summarises the IC50s obtained with the compounds of the Examples representing the compounds of the invention, with regard to the contraction of rat aortas induced by a hyperpotassic medium.

[3] = test system: rabbit aortas; assay: Anti-vasoconstrictive activity in calcium-free medium: contraction of rabbit aortas induced by noradrenaline; design: species or system New Zealand rabbits; conditions: Oryctolagus cuniculus, 0.5 h, 30 minutes incubation, noradrenaline 10^-6 M, calcium-free (+0.2 mM EGTA); for inhibition at 1 µM: 10^-6 M compound; for inhibition at 0.1 µM: 10^-7 M compound
Procedure: as §1, §2
The inhibitory effect of a concentration of the compounds of the invention incubated for 30 minutes, with regard to vascular contraction induced by nonadrenaline (10^-6 M), is tested.

[4] = test system: isolated rat's heart; assay: Protective effect on an isolated rat's heart subjected to hypoxia-reoxygenation; design: species or system WISTAR rats; conditions: compound 8·10^-7 M, solvent H2O; for % PVG at 30 min DE REOXYGENATION: 30 min reoxygenation after 60 min hypoxia
Procedure: The heart is removed from WISTAR rats (325-375 g). The heart is perfused rapidly according to the technique of LANGENDORFF at a constant pressure of 76 mmHg and is stimulated electrically at 5 Hz.
The heart is subjected to hypoxia for 60 minutes, which is effected by the administration of a gaseous mixture of 95% N2 +5% CO2 during that period, and is followed by reoxygenation for 30 minutes.
The test compounds are incubated for 15 minutes prior to and for the duration of the hypoxia.
The isovolumetric contractions are recorded by means of a polyethylene balloon connected to a pressure sensor (P23-GOULD) introduced into the left ventricle and inflated so as to obtain a diastolic pressure of between 5 and 10 mm of mercury.

SMILES	IC50 [2]	% contraction ([1]; 10 min, solvent H2O)	% contracture ([1]; 15 min, solvent H2O)	% contraction ([1]; 30 min, solvent H2O)	% contracture ([1]; 30 min, solvent H2O)	% contraction ([1]; 60 min, solvent H2O)	% contracture ([1]; 60 min, solvent H2O)	inhibition at 1 µM [3]	inhibition at 0.1 µM [3]	Contracture amplitude at 15 min reoxygenation [4]	% PVG at 30 min DE REOXYGENATION [4]	Contracture amplitude at 30 min reoxygenation [4]	% contraction ([1]; 10 min, solvent DMSO)	% contracture ([1]; 15 min, solvent DMSO)	% contraction ([1]; 30 min, solvent DMSO)	% contracture ([1]; 30 min, solvent DMSO)	% contraction ([1]; 60 min, solvent DMSO)	% contracture ([1]; 60 min, solvent DMSO)
CN(CCCC(=O)c1ccc(F)cc1)CC1CCN(S(=O)(=O)c2cccc3cnccc23)CC1 [Example 5, Dihydrochloride of 1-(isoquinolin-5-ylsulphonyl)-4-{N-methyl-N-[4-(p-fluorophenyl)-4-oxobutyl]aminomethyl}piperidine]		206.1 ± 21%	0%	186.1 ± 21.2%	2.8 ± 2.1%	141.3 ± 25.3%	16.5 ± 9.5%											
CN(CCCCCOc1ccc(F)cc1)C1CCN(S(=O)(=O)c2cccc3cnccc23)CC1 [Example 4, Fumarate of 1-(isoquinolin-5-ylsulphonyl)-4 {N-methyl N-[5-(p-fluorophenoxy)pentyl]amino}piperidine]													213.9 ± 22%	0%	208.6 ± 22%	0%	211.1 ± 30%	0%
CN(CCCC(=O)c1ccc(F)cc1)C1CCN(S(=O)(=O)c2cccc3cnccc23)CC1 [Example 2, Dihydrochloride of 1-(isoquinolin-5-ylsulphonyl)-4-{N-methyl-N-[4-oxo-4-(p-fluorophenyl)butyl]amino}piperidine]	3.3 µM	184.0 ± 17.3%	1.4 ± 1.4%	138.8 ± 34.9%	10.5 ± 4.7%	112.2 ± 31.0%	33.5 ± 16.4%	86%	50%	5.5 ± 4.3 mmHg	95.0 ± 1.9%	0.5 ± 0.5 mmHg						

More lines, main results first:

IC50 [2]	SMILES	% contraction ([1]; 10 min, solvent H2O)	% contracture ([1]; 15 min, solvent H2O)	% contraction ([1]; 30 min, solvent H2O)	% contracture ([1]; 30 min, solvent H2O)	% contraction ([1]; 60 min, solvent H2O)	% contracture ([1]; 60 min, solvent H2O)	inhibition at 1 µM [3]	inhibition at 0.1 µM [3]	Contracture amplitude at 15 min reoxygenation [4]	% PVG at 30 min DE REOXYGENATION [4]	Contracture amplitude at 30 min reoxygenation [4]	% contraction ([1]; 10 min, solvent DMSO)	% contracture ([1]; 15 min, solvent DMSO)	% contraction ([1]; 30 min, solvent DMSO)	% contracture ([1]; 30 min, solvent DMSO)	% contraction ([1]; 60 min, solvent DMSO)	% contracture ([1]; 60 min, solvent DMSO)
1.5 µM	CN(CCCOc1ccc(F)cc1)CC1CCN(S(=O)(=O)c2cccc3cnccc23)CC1 [Example 3, Fumarate of 1-(isoquinolin-5-ylsulphonyl)-4-{{N-methyl-N-[3-(p-fluorophenoxy)propyl]amino}methyl}piperidine]	183.3 ± 20.7%	0.9 ± 0.9%	155.4 ± 15.0%	7.7 ± 1.5%	130.7 ± 34.5%	21.8 ± 6.2%	82%	43%	9.6 ± 2.4 mmHg	85.4 ± 5.8%	1.6 ± 1.0 mmHg						
9.2 µM	CN(CCCCOc1ccc(F)cc1)C1CCN(S(=O)(=O)c2cccc3cnccc23)CC1 [Example 1, Fumarate of 1-(isoquinolin-5-ylsulphonyl)-4-{N-methyl-N-[4-(p-fluorophenoxy)butyl]amino}piperidine]							62%					254.7 ± 22%	0%	260.6 ± 29%	0%	253.6 ± 26%	4 ± 4%
